Laboratory results published in patent US20250052744A1, “Dyes and Uses Thereof” (The University of Liverpool, priority 2021, published 2025).
Entries after “also recorded” stand apart in the source; their conditions may differ.

Key:
Test in all cases: Qualitative dye staining on agarose pads (EVOS M7000)
Type in all cases: cell-based
Design in all cases: key to Relative fluorescent intensity: Very high: If the cells looked twice as big in the fluorescent channel, it was marked as having “very high” relative fluorescent intensity; High: if the cells looked bigger in the fluorescent channel, it was marked as having “high” relative fluorescent intensity; Medium: If the cells looked almost the same size in the fluorescent channel and the bright field, it was marked as having “medium” relative fluorescent intensity; Low: If the cells looked smaller in the fluorescent channel as compared to the brightfield but still the whole cell was visible, it was marked as having “low” relative fluorescent intensity; Negligible: If only a few traces of a cell was visible in the fluorescent channel, it was marked as having “negligible” relative fluorescent intensity
Conditions in all cases: DiSC3(5) 3 μM, SYBR Green I 10×, SYTO 13 3 μM, FM4-64 15 μM
Cory. Urealyticum = system: Cory. Urealyticum
Pseudomonas aeruginosa = system: Pseudomonas aeruginosa
[1] = system: Staphylococcus saprophyticus
[2] = Table 8 sample Cory. Urealyticum (1001)
[3] = Table 8 sample Cory. Urealyticum (1002)
[4] = Table 6 thresholds, Pseudomonas aeruginosa
[5] = Table 7 commercial strain Pseudomonas aeruginosa NCTC 10332
[6] = Table 7 commercial strain Pseudomonas aeruginosa NCTC 13715
[7] = Table 8 sample Pseudomonas aeruginosa (031)
[8] = Table 8 sample Pseudomonas aeruginosa (032)
[9] = Table 8 sample Pseudomonas aeruginosa (033)
[10] = Table 6 thresholds, Staphylococcus saprophyticus
[11] = Table 7 commercial strain S. saprophyticus NCTC 13634
[12] = Table 8 sample Staphylococcus saprophyticus (047)
[13] = Table 8 sample Staphylococcus saprophyticus (048)
[14] = Table 8 sample Staphylococcus saprophyticus (049)

Row | Compound | Percentage of cells stained (Cory. Urealyticum; [2]) | Relative fluorescent intensity (Cory. Urealyticum; [2]) | Percentage of cells stained (Cory. Urealyticum; [3]) | Relative fluorescent intensity (Cory. Urealyticum; [3]) | Percentage of cells stained (Pseudomonas aeruginosa; [4]) | Relative fluorescent intensity (Pseudomonas aeruginosa; [4]) | Percentage of cells stained (Pseudomonas aeruginosa; [5]) | Relative fluorescent intensity (Pseudomonas aeruginosa; [5]) | Percentage of cells stained (Pseudomonas aeruginosa; [6]) | Relative fluorescent intensity (Pseudomonas aeruginosa; [6]) | Percentage of cells stained (Pseudomonas aeruginosa; [7]) | Relative fluorescent intensity (Pseudomonas aeruginosa; [7]) | Percentage of cells stained (Pseudomonas aeruginosa; [8]) | Relative fluorescent intensity (Pseudomonas aeruginosa; [8]) | Percentage of cells stained (Pseudomonas aeruginosa; [9]) | Relative fluorescent intensity (Pseudomonas aeruginosa; [9]) | Percentage of cells stained [1, 10] | Relative fluorescent intensity [1, 10] | Percentage of cells stained [1, 11] | Relative fluorescent intensity [1, 11] | other results
1 | CCCN1C(=CC=CC=Cc2sc3ccccc3[n+]2CCC)Sc2ccccc21.[I-] [DiSC3(5), 3,3′-Dipropylthiadicarbocyanine Iodide] | Few | Negligible | Few | Negligible | Few | no or negligible staining; also recorded: Negligible | Few | Negligible | Few | Negligible | Few | Negligible | Few | Negligible | Few | Negligible | Almost all | high and High | Almost all | High | Percentage of cells stained [1, 12]: Almost all; Relative fluorescent intensity [1, 12]: High; Percentage of cells stained [1, 13]: Almost all; Relative fluorescent intensity [1, 13]: High; Percentage of cells stained [1, 14]: Almost all; Relative fluorescent intensity [1, 14]: High
2 | CCN(CC)c1ccc(C=CC=CC=Cc2cc[n+](CCC[N+](CC)(CC)CC)cc2)cc1.[Br-].[Br-] [FM 4-64, N-(3-Triethylammoniumpropyl)-4-(6-(4-(Diethylamino) Phenyl) Hexatrienyl) Pyridinium Dibromide] | Few | Negligible | Few | Negligible | Almost all | Low | Almost all | Negligible | Almost all | Low | Almost all | Low | Almost all | Low | Almost all | Low | Almost all | High | Almost all | High | Percentage of cells stained [1, 12]: Almost all; Relative fluorescent intensity [1, 12]: High; Percentage of cells stained [1, 13]: Almost all; Relative fluorescent intensity [1, 13]: High; Percentage of cells stained [1, 14]: Almost all; Relative fluorescent intensity [1, 14]: High
3 | CCCN(CCCN(C)C)c1cc(/C=C2/Sc3ccccc3N2C)c2ccccc2[n+]1-c1ccccc1 [SYBR Green I, N′,N′-dimethyl-N-[4-[(E)-(3-methyl-1,3-benzothiazol-2-ylidene)methyl]-1-phenylquinolin-1-ium-2-yl]-N-propylpropane-1,3-diamine] | Few | Negligible | Few | Negligible | Almost all | Low | Almost all | Low | Almost all | Low | Almost all | Low | Almost all | Low | Almost all | Low | Almost all | High | Almost all | High | Percentage of cells stained [1, 12]: Almost all; Relative fluorescent intensity [1, 12]: High; Percentage of cells stained [1, 13]: Almost all; Relative fluorescent intensity [1, 13]: High; Percentage of cells stained [1, 14]: Almost all; Relative fluorescent intensity [1, 14]: High
